# Test results taken from patent publication US9334289B2, “Cephem compound having catechol or pseudo-catechol structure” (SHIONOGI & CO., LTD., priority 2011, dated 2016).
# Experiments:
# Assay in all cases: MIC, CLSI broth microdilution, Test Example 2
# Type in all cases: cell-based
# A. baumannii SR01331 = conditions: Acinetobacter baumannii, SR01331; PER-1, OXA-23.51 ESBL- & OXA-type carbapenemase producing strain; cation-adjusted Iso-Sensitest broth containing human Apo-transferrin; 5×10^5 cfu/mL; read-out: Minimum Inhibitory Concentration (MIC) A. baumannii SR01331
# Procedure: (§1) Measurement of Minimum Inhibitory Concentration (MIC: μg/mL) was conducted according to CLSI (Clinical and Laboratory Standards Institute) method, and the amount of bacteria for inoculation was 5×10^5 cfu/mL, and cation-adjusted Iso-Sensitest broth containing human Apo-transferrin was used as a test medium, and the experiment was conducted using broth microdilution method.
# E. cloacae NCTC13464 = conditions: Enterobacter cloacae, NCTC13464; CTX-M group 9 ESBL producing strain; cation-adjusted Iso-Sensitest broth containing human Apo-transferrin; 5×10^5 cfu/mL; read-out: Minimum Inhibitory Concentration (MIC) E. cloacae NCTC 13464
# Procedure: as §1
# E. coli ATCCBAA-196 = conditions: Escherichia coli, ATCCBAA196; TEM-10 ESBL producing strain; cation-adjusted Iso-Sensitest broth containing human Apo-transferrin; 5×10^5 cfu/mL; read-out: Minimum Inhibitory Concentration (MIC) E. coli ATCC BAA-196
# Procedure: as §1
# E. coli ATCCBAA-200 = conditions: Escherichia coli, ATCCBAA200; SHV-4 ESBL producing strain; cation-adjusted Iso-Sensitest broth containing human Apo-transferrin; 5×10^5 cfu/mL; read-out: Minimum Inhibitory Concentration (MIC) E. coli ATCC BAA-200
# Procedure: as §1
# E. coli SR01337 = conditions: Escherichia coli, SR01337; TEM-1 ESBL producing strain; cation-adjusted Iso-Sensitest broth containing human Apo-transferrin; 5×10^5 cfu/mL; read-out: Minimum Inhibitory Concentration (MIC) E. coli SR01337
# Procedure: as §1
# K. pneumoniae ATCC700603 = conditions: Klebsiella pneumoniae, ATCC700603; SHV18 ESBL producing strain; cation-adjusted Iso-Sensitest broth containing human Apo-transferrin; 5×10^5 cfu/mL; read-out: Minimum Inhibitory Concentration (MIC) K. pneumoniae ATCC 700603
# Procedure: as §1
# P. aeruginosa SR01332 = conditions: Pseudomonas aeruginosa, SR01332; VIM-11 MBL producing strain (carbapenem resistance strain); cation-adjusted Iso-Sensitest broth containing human Apo-transferrin; 5×10^5 cfu/mL; read-out: Minimum Inhibitory Concentration (MIC) P. aeruginosa SR01332
# Procedure: as §1
# P. aeruginosa SR01335 = conditions: Pseudomonas aeruginosa, SR01335; VIM-1 like MBL producing strain (carbapenem resistance strain); cation-adjusted Iso-Sensitest broth containing human Apo-transferrin; 5×10^5 cfu/mL; read-out: Minimum Inhibitory Concentration (MIC) P. aeruginosa SR01335
# Procedure: as §1
SMILES,MIC (A. baumannii SR01331) [µg/mL],MIC (E. cloacae NCTC13464) [µg/mL],MIC (E. coli ATCCBAA-196) [µg/mL],MIC (E. coli ATCCBAA-200) [µg/mL],MIC (E. coli SR01337) [µg/mL],MIC (K. pneumoniae ATCC700603) [µg/mL],MIC (P. aeruginosa SR01332) [µg/mL],MIC (P. aeruginosa SR01335) [µg/mL]
"Nc1nc(/C(=N/OC(C(=O)[O-])C(=O)[O-])C(=O)N[C@@H]2C(=O)N3C(C(=O)[O-])=C(C[N+]45CCC(CNC(=O)c6ccc(O)c(O)c6Cl)(CC4)CC5)CS[C@H]23)cs1.[Na+].[Na+] (some centres unmarked) [Comparative Compound 2, reference compound]",> 32,0.5,0.5,1,> 32,0.5,32,4
CC(C)(O/N=C(\C(=O)N[C@@H]1C(=O)N2C(c3nnn[n-]3)=C(C[N+]3(CCNC(=O)c4cc(O)c(O)c(Cl)c4)CCCC3)CS[C@H]12)c1nc(N)sc1Cl)C(=O)[O-].[Na+] [Compound I-30],1,0.063,≤ 0.031,0.063,≤ 0.031,0.125,2,2
CC(C)(O/N=C(\C(=O)N[C@@H]1C(=O)N2C(c3nnn[n-]3)=C(C[N+]3(C)[C@@H]4CC[C@H]3CC(NC(=O)c3cc(O)c(O)c(F)c3)C4)CS[C@H]12)c1nc(N)sc1Cl)C(=O)[O-].[Na+] (some centres unmarked) [Compound I-33],0.5,0.25,0.063,0.25,0.063,0.25,2,4
CC(C)(O/N=C(\C(=O)N[C@@H]1C(=O)N2C(c3nnn[n-]3)=C(C[N@+]34CCC[C@H]3CN(C(=O)c3cc(O)c(O)c(F)c3)CC4)CS[C@H]12)c1nc(N)sc1Cl)C(=O)[O-].[Na+] [Compound I-34],1,0.5,0.063,0.25,≤ 0.031,0.5,4,2
CC(C)(O/N=C(\C(=O)N[C@@H]1C(=O)N2C(c3nnn[n-]3)=C(C[n+]3ccc(NC(=O)c4ccc(O)c(O)c4Cl)cc3)CS[C@H]12)c1nc(N)sc1Cl)C(=O)[O-].[Na+] [Compound I-36],0.5,0.125,≤ 0.031,0.25,≤ 0.031,0.5,0.5,4
Cc1cc2cc(O)c(O)cc2c[n+]1CC1=C(c2nnn[n-]2)N2C(=O)[C@@H](NC(=O)/C(=N\OC(C)(C)C(=O)[O-])c3nc(N)sc3Cl)[C@H]2SC1.[Na+] [Compound I-38],0.5,0.125,0.063,0.25,≤ 0.031,0.125,0.5,1
Nc1nc(/C(=N/O[C@@H](CC(=O)[O-])C(=O)[O-])C(=O)N[C@@H]2C(=O)N3C(c4nnn[n-]4)=C(C[N+]45CCC[C@H]4CN(C(=O)c4ccc(O)c(O)c4Cl)CC5)CS[C@H]23)cs1.[Na+].[Na+] (some centres unmarked) [Compound I-57],0.5,0.25,0.063,0.25,0.063,0.125,8,1
Nc1nc(/C(=N/O[C@@H](CC(=O)[O-])C(=O)[O-])C(=O)N[C@@H]2C(=O)N3C(c4nnn[n-]4)=C(C[N+]4(CCNC(=O)c5cc(Cl)c(O)c(O)c5Cl)CCCC4)CS[C@H]23)cs1.[Na+].[Na+] [Compound I-60],0.5,0.063,≤ 0.031,0.063,≤ 0.031,≤ 0.031,4,1
C[N+]1(CC2=C(c3nnn[n-]3)N3C(=O)[C@@H](NC(=O)/C(=N\O[C@@H](CC(=O)[O-])C(=O)[O-])c4csc(N)n4)[C@H]3SC2)CCN(C(=O)c2ccc(O)c(O)c2Cl)CC1.[Na+].[Na+] [Compound I-61],1,0.125,0.063,0.25,0.063,0.125,4,4
Nc1nc(/C(=N/O[C@@H](CC(=O)[O-])C(=O)[O-])C(=O)N[C@@H]2C(=O)N3C(c4nnn[n-]4)=C(C[N+]45CCC[C@H]4CN(C(=O)c4cc(O)c(O)c(F)c4)CC5)CS[C@H]23)cs1.[Na+].[Na+] (some centres unmarked) [Compound I-63],1,0.25,0.063,0.25,0.063,0.25,2,2
CC(C)(O/N=C(\C(=O)N[C@@H]1C(=O)N2C(c3nnn[nH]3)=C(C[N+]3(C)CCN(C(=O)c4ccc(O)c(O)c4Cl)CC3)CS[C@H]12)c1nsc(N)n1)C(=O)O.[Na+] [Compound I-110],1,0.25,0.5,–,0.063,0.25,8,0.5
CC(C)(O/N=C(\C(=O)N[C@@H]1C(=O)N2C(c3nnn[nH]3)=C(C[N@+]34CCC[C@H]3CN(C(=O)c3cc(O)c(O)c(F)c3)CC4)CS[C@H]12)c1nsc(N)n1)C(=O)[O-] [Compound I-111],1,0.25,1,–,0.125,0.5,2,2
CC(C)(O/N=C(\C(=O)N[C@@H]1C(=O)N2C(c3nnn[nH]3)=C(C[N@+]34CCC[C@H]3CN(C(=O)c3ccc(O)c(O)c3Cl)CC4)CS[C@H]12)c1nsc(N)n1)C(=O)[O-] [Compound I-112],1,0.25,0.5,–,0.063,0.5,4,2

# Further compounds by falling MIC (A. baumannii SR01331), results first:
MIC (A. baumannii SR01331) [µg/mL],MIC (E. cloacae NCTC13464) [µg/mL],MIC (E. coli ATCCBAA-196) [µg/mL],MIC (E. coli ATCCBAA-200) [µg/mL],MIC (E. coli SR01337) [µg/mL],MIC (K. pneumoniae ATCC700603) [µg/mL],MIC (P. aeruginosa SR01332) [µg/mL],MIC (P. aeruginosa SR01335) [µg/mL],SMILES
0.5,0.5,0.125,0.5,≤ 0.031,0.125,1,1,CC(C)(O/N=C(\C(=O)N[C@@H]1C(=O)N2C(c3nnn[n-]3)=C(C[n+]3cccc4c3CCCN4C(=O)c3ccc(O)c(O)c3Cl)CS[C@H]12)c1nc(N)sc1Cl)C(=O)[O-].[Na+] [Compound I-28]
0.5,0.063,≤ 0.031,0.063,≤ 0.031,0.125,4,2,CC(C)(O/N=C(\C(=O)N[C@@H]1C(=O)N2C(c3nnn[n-]3)=C(C[N@+]34CCC[C@H]3CN(C(=O)c3cc(O)c(O)c(Cl)c3)CC4)CS[C@H]12)c1nc(N)sc1Cl)C(=O)[O-].[Na+] [Compound I-29]
0.5,0.125,0.063,0.25,≤ 0.031,0.125,1,1,CC(C)(O/N=C(\C(=O)N[C@@H]1C(=O)N2C(c3nnn[n-]3)=C(C[n+]3ccc(CNC(=O)c4ccc(O)c(O)c4Cl)cc3)CS[C@H]12)c1nc(N)sc1Cl)C(=O)[O-].[Na+] [Compound I-31]
0.25,0.063,≤ 0.031,0.063,≤ 0.031,≤ 0.031,4,1,CC(C)(O/N=C(\C(=O)N[C@@H]1C(=O)N2C(c3nnn[n-]3)=C(C[N+]3(CCNC(=O)c4ccc(O)c(O)c4Cl)CCCCC3)CS[C@H]12)c1nc(N)sc1Cl)C(=O)[O-].[Na+] [Compound I-32]
0.25,≤ 0.031,≤ 0.031,0.063,≤ 0.031,0.063,0.25,0.5,CC(C)(O/N=C(\C(=O)N[C@@H]1C(=O)N2C(c3nnn[n-]3)=C(C[n+]3ccc4cc(O)c(O)cc4c3)CS[C@H]12)c1nc(N)sc1Cl)C(=O)[O-].[Na+] [Compound I-37]
0.125,≤ 0.031,≤ 0.031,≤ 0.031,≤ 0.031,≤ 0.031,0.25,0.5,Nc1nc(/C(=N/O[C@@H](CC(=O)[O-])C(=O)[O-])C(=O)N[C@@H]2C(=O)N3C(c4nnn[n-]4)=C(C[n+]4ccc5cc(O)c(O)cc5c4)CS[C@H]23)cs1.[Na+].[Na+] [Compound I-65]
